Assay [1] concerns transplanted GT-KO/hCD46/hTM porcine donor heart. The experiment in a line: Life-supporting orthotopic pig-to-baboon cardiac xenotransplantation. Type of assay: in vivo, baboon (Papio Anubis). An excerpt: Seven juvenile pigs of cross-bred genetic backround (German Landrace and Large White, blood group 0) served as donors for heart xenotransplantation. All organs were homozygous for alpha 1,3-galactosyltransferase knockout (GT-KO), and transgeneic for hCD46/thrombomodulin (hTM) (Revivicor, Blacksburg, Va., USA and Institute for Molecular Animal Breeding and Biotechnology, Gene Center, Faculty of Veterinary Medicine, Ludwig-Maximilians-University, Munich, Germany). Localisation and stability of hCD46/hTM expression was verified post-mortem by immunohistochemistry (FIG. 15). Donor heart function and absence of valvular defects were evaluated 7 days prior to transplantation by echocardiographies. Seven male captive-bred baboons (Papio Anubis, blood groups B and AB) were used as recipients.
The recipient's thorax was opened at midline. Unfractionated heparin (500 IU/kg; Heparin-Natrium-25000-ratiopharm, ratiopharm GmbH, Ulm, Germany) was given and the heart-lung machine connected, using both caval veins and the ascending aorta. Cardiopulmonary bypass commenced and the recipient cooled (30° C. in group I, 34° C. in groups II and III). After crossclamping the ascending aorta, the recipient's heart was excised at the atrial levels, both large vessels were cut. The porcine donor heart was transplanted applying Shumway's and Lower's technique (cf. reference 8).
Immunosuppression was based on Mohiuddin's regimen (cf. reference 5; there were changes as indicated in the following), with C1 esterase inhibitor instead of cobra venom factor for complement inhibition. Induction consisted of anti-CD20 antibody (Mabthera; Roche Pharma AG, Grenzach-Wyhlen, Germany), ATG (Thymoglobuline, Sanofi-Aventis Germany GmbH, Frankfurt, Germany), and either anti-CD40 antibody (mouse/rhesus chimeric IgG4 clone 2C10R4, NIH Nonhuman Primate Reagent Resource, Mass Biologicals, Boston, Mass., USA; courtesy of Keith Reimann) or humanised anti-CD40L pasylated Fab (production: Wacker-Chemie, Burghausen, Germany; purification: XL-protein GmbH, Freising, Germany; courtesy of Arne Skerra, cf. reference 9). Maintenance immunosuppression consisted of MMF (CellCept, Roche, Basle, Switzerland; trough level 2-3 μg/ml), either anti-CD40 antibody or anti-CD40L pasylated Fab, methylprednisolone (Urbasone solubile, Sanofi-Aventis Germany GmbH, Frankfurt, Germany). Anti-inflammatory therapy included II-6-receptor antibody (RoActemra, Roche Pharma AG, Grenzach-Wyhlen, Germany), TNFα inhibitor (Enbrel, Pfizer Pharma GmbH, Berlin, Germany) and II-1-receptor antagonist (Kineret, Swedish Orphan Biovitrum GmbH, Martinsried, Germany). Additive therapy: acetylsalicylic acid (Aspirin, Bayer Vital GmbH, Leverkusen, Germany), unfractionated heparin (Heparin-Natrium-25000-ratiopharm, ratiopharm GmbH, Ulm, Germany), C1 esterase inhibitor (Berinert, CSL Behring GmbH, Hattersheim, Germany), ganciclovir (Cymevene, Roche Pharma AG, Grenzach-Wyhlen, Germany), cefuroxime (Cefuroxim Hikma, Hikma Pharma GmbH, Martinsried, Germany) and epoetin beta (NeoRecormon 5000IU, Roche Pharma AG, Grenzach-Wyhlen, Germany).
Starting from 10 mg/kg/d, methylprednisolone was tapered down 1 mg/kg every 10 days in group I and II; in group III, methylprednisolone was tapered down to 0.1 mg/kg within 19 days. […]
Transthoracic echocardiographies were done in analgosedation at regular intervals using an HP Sonos 7500 (HP Inc., Palo Alto, Calif., USA); midpapillary short axis views were recorded. […]

Another assay has as its system PCNA. Briefly: Western blot analysis of myocardium of transplanted hearts, PCNA. As to conditions: experiment 67 (group III), after treatment with temsirolimus, compared to control (Co). It counts as in vivo, pig. The protocol:
For protein extraction, heart samples were homogenized in Laemmli-extraction-buffer, and the protein content was estimated by the bicinchoninic acid (BCA, Merck, Darmstadt, Germany) protein assay. 20 μg of total protein was separated by 10% SDS-PAGE and transferred to polyvinylidene difluoride (PDVF) membranes (Millipore, Billerica, USA) by electroblotting. Membranes were washed in Tris-buffered saline solution with 0.1% Tween-20 (Merck) (TBS-T) and blocked in 5% w/v fat-free milk powder (Roth, Karlsruhe, Germany) for 1 h at room temperature. Then membranes were washed again in TBS-T and incubated in 5% w/v BSA (Roth) of the appropriate primary antibody overnight at 4° C. The following antibodies were used: rabbit anti-human pmTOR (#5536; Cell Signaling, Frankfurt, Germany) and mouse anti-human PCNA (#2586; Cell Signalling). After washing, membranes were incubated in 5% w/v fat-free milk powder with a horseradish peroxidase labelled secondary antibody for 1 h at room temperature. Bound antibodies were detected using an enhanced chemiluminescence detection reagent (ECL Advance Western Blotting Detection Kit, GE Healthcare, Munich, Germany) and appropriate x-ray films (GE Healthcare). After detection, membranes were stripped (Elution buffer: 2% SDS, 62.5 mM Tris/HCl, pH 6.7 and 100 mM […] for 30 min at 70° C.) and incubated with an appropriate second antibody. […]

The target of another assay is T1, phosphorylated mTOR (Sus scrofa, UniProt F1RHR8).
T1 construct: heart samples were homogenized in Laemmli-extraction-buffer; from tissue; host or cells: myocardium of GTKO/hCD46/hTM pig donor hearts transplanted orthotopically into baboons (Papio anubis); control: non-transplanted pig heart
The experiment in a line: Western blot analysis of myocardium of transplanted hearts, phosphorylated mTOR. Type of assay: in vivo, pig. The settings on record: experiment 67 (group III), after treatment with temsirolimus, compared to control (Co). Here is the method: For protein extraction, heart samples were homogenized in Laemmli-extraction-buffer, and the protein content was estimated by the bicinchoninic acid (BCA, Merck, Darmstadt, Germany) protein assay. 20 μg of total protein was separated by 10% SDS-PAGE and transferred to polyvinylidene difluoride (PDVF) membranes (Millipore, Billerica, USA) by electroblotting. Membranes were washed in Tris-buffered saline solution with 0.1% Tween-20 (Merck) (TBS-T) and blocked in 5% w/v fat-free milk powder (Roth, Karlsruhe, Germany) for 1 h at room temperature. Then membranes were washed again in TBS-T and incubated in 5% w/v BSA (Roth) of the appropriate primary antibody overnight at 4° C. […] Bound antibodies were detected using an enhanced chemiluminescence detection reagent (ECL Advance Western Blotting Detection Kit, GE Healthcare, Munich, Germany) and appropriate x-ray films (GE Healthcare). […]
For protein extraction, heart samples were homogenized in Laemmli sample buffer and the protein content was estimated using the bicinchoninic acid (BCA, Merck) protein assay. […] Bound antibodies were detected using an enhanced chemiluminescence detection reagent (ECL Advance Western Blotting Detection Kit, GE Healthcare) and appropriate X-ray films (GE Healthcare). […]

Assay [2] concerns the target T2, porcine growth hormone receptor (GHR) (pig, UniProt P19756 19-638).
T2 construct: whole, on cells; Endogenous receptor in tissue sections of control pigs; GHR-KO pigs (frameshift in exon 3) lack it; also called porcine GHR
T2 sequence (looked up): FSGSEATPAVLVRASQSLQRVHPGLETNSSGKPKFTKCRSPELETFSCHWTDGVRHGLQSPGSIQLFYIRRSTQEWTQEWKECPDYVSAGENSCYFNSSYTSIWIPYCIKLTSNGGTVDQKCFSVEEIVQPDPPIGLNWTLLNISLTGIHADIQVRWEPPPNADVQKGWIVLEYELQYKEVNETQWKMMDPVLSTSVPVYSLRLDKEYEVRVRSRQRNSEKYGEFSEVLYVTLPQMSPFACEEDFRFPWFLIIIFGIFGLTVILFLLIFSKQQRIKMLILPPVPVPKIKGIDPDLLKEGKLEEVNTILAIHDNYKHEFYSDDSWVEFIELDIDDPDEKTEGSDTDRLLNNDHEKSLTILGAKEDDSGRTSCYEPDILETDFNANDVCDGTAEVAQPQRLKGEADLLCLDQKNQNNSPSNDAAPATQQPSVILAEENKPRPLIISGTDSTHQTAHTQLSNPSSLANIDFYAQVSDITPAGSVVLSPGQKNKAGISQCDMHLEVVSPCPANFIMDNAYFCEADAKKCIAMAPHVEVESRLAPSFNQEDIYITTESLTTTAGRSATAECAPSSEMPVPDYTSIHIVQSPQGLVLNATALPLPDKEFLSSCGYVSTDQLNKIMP
The experiment in a line: ligand immunohistochemistry: rat GH on liver and kidney paraffin sections of control and GHR-KO pigs, detected with anti-rat GH antibody and DAB. Here is the method:
Liver and kidney tissue of GHR-KO and control pigs was fixed overnight in 4% formaldehyde and routinely embedded in paraffin. Paraffin sections were dewaxed, and endogenous peroxidase and biotin were blocked with 1% H₂O₂ in Tris-buffered saline (TBS) for 15 min and by using the avidin/biotin blocking kit (no. SP-2001; Vector Laboratories), respectively. After blocking with 0.5% fish gelatin for 30 min, the slides were incubated in 0.5 μg/mL recombinant rat GH (no. 16343667, ImmunoTools) in 0.2% fish gelatin solution overnight at 4° C. They were then washed 3 times for 5 min in TBS and incubated in goat anti-rat GH polyclonal antibody solution (dilution 1:2,400, no. AF1566, R&D Systems) for 6 h at room temperature. After 3 washing steps in TBS (10 min each), the slides were incubated in biotinylated rabbit anti-goat IgG solution (dilution 1:100, no. BA-5000, Vector Laboratories) for 1 h at room temperature, washed 3 times for 10 min in TBS, and finally incubated with horseradish peroxidase-labelled avidin biotin complex for 30 min (no. PK-6100, VECTASTAIN Elite ABC-Peroxidase kit, Vector Laboratories). Immunoreactivity was visualized using 3,3′-diaminobenzidine tetrahydrochloride dihydrate (DAB) (brown color). Nuclear counterstaining was performed with Mayer's hemalum (blue color). […]

The mark [3] stands for this setting: group III, with antihypertensive treatment and early glucocorticoid tapering.

T1 sequence (F1RHR8 1-2548): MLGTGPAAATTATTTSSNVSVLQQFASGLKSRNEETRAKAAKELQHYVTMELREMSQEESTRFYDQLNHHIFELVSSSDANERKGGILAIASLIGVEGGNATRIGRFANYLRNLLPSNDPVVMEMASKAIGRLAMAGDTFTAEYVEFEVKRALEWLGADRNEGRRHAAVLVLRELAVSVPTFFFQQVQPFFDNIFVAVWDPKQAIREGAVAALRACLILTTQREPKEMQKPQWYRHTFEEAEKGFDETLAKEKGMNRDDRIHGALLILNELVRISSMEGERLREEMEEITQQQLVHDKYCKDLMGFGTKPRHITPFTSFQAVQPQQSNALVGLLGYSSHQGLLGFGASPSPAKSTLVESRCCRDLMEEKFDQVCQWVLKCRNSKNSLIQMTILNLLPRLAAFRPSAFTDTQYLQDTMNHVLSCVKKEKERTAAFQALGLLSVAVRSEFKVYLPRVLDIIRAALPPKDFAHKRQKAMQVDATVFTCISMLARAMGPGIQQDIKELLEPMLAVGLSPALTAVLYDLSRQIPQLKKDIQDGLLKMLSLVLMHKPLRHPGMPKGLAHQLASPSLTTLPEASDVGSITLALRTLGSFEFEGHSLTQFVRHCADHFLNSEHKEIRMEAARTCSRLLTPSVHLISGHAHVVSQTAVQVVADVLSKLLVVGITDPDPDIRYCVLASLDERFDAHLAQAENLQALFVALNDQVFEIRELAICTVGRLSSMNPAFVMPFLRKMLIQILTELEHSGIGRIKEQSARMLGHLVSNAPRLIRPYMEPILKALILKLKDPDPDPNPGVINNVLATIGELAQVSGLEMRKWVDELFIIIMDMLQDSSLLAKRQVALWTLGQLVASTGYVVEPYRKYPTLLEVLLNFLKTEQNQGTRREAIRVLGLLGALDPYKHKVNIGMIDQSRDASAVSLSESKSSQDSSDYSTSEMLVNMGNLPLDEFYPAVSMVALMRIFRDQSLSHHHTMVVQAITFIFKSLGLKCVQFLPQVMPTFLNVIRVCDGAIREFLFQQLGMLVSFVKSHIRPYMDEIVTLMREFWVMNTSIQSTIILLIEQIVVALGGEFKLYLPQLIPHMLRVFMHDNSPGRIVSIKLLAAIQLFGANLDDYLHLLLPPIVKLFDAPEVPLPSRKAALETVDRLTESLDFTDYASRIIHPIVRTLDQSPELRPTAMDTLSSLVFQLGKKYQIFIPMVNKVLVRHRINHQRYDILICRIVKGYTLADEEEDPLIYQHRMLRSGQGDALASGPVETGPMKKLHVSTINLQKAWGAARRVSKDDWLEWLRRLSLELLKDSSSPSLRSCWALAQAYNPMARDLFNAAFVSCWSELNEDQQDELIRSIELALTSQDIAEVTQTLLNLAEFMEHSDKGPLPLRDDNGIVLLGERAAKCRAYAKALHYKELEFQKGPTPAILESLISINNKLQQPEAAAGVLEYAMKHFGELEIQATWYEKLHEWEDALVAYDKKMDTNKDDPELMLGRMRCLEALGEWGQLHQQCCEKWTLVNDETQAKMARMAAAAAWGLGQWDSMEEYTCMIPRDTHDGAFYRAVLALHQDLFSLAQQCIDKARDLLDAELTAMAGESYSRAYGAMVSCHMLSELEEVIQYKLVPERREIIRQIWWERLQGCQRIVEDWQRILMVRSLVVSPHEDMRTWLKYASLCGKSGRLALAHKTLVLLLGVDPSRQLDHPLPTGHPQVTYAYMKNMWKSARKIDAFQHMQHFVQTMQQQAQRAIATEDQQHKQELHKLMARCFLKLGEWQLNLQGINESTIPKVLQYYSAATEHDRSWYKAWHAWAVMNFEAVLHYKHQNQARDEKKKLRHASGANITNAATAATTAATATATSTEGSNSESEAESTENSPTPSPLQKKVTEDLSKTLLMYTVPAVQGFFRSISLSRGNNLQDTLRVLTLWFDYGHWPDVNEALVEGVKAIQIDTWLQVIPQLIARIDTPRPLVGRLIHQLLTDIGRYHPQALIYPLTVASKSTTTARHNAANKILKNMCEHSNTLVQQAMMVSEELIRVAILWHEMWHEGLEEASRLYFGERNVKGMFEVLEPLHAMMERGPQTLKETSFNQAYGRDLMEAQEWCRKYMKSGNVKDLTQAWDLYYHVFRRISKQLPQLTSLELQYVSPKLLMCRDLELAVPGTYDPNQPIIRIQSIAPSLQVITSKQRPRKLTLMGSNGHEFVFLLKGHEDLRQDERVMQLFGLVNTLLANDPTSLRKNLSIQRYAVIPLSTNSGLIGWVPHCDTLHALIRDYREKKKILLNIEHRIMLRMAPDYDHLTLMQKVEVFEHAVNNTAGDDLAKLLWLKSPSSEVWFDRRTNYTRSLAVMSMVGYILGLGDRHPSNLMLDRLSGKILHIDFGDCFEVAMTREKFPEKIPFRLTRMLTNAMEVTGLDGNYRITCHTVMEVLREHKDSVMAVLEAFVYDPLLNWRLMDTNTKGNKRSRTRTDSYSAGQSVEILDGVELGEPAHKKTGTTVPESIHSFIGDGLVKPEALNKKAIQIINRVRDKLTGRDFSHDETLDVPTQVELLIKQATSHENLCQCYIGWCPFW

For `CO[C@H]1C[C@@H]2CC[C@@H](C)[C@@](O)(O2)C(=O)C(=O)N2CCCC[C@H]2C(=O)O[C@H]([C@H](C)C[C@@H]2CC[C@@H](OC(=O)C(C)(CO)CO)[C@H](OC)C2)CC(=O)[C@H](C)/C=C(\C)[C@@H](O)[C@@H](OC)C(=O)[C@H](C)C[C@H](C)/C=C/C=C/C=C/1C` [temsirolimus], the “pathologic findings described for groups I and II (heart and liver failure, graft overgrowth, myocardial hypertrophy)” value in assay [1] (group III recipients: antihypertensive treatment, early glucocorticoid weaning and additional temsirolimus medication) is given as “absent”. In addition, in assay [1] (group III, combination of blood pressure lowering, early cortisone tapering and temsirolimus), the cardiac overgrowth result is reported as “successfully counteracted”. Moreover, in assay [1] (setting [3]), the “myocardial hypertrophy of the transplanted heart” value is on record as “mitigated” and the “obliteration of LV cavity” value is “omitted”. In addition, the “growth of the cardiac graft (LV mass) after discontinuation of temsirolimus” value in assay [1] (recipients 13 and 14, i.v. temsirolimus discontinued on day 175 and on day 161) is reported as “increased growth of the cardiac graft”. The “PCNA in myocardium (Western blot)” value in the assay with PCNA is on record as “downregulated”. For the same molecule, the “phosphorylated mTOR in myocardium (Western blot)” value at phosphorylated mTOR is recorded as “downregulated”.

B1: recombinant rat GH (no. 16343667, ImmunoTools) (ligand, UniProt P01244 27-216, looked up)
chain: FPAMPLSSLFANAVLRAQHLHQLAADTYKEFERAYIPEGQRYSIQNAQAAFCFSETIPAPTGKEEAQQRTDMELLRFSLLLIQSWLGPVQFLSRIFTNSLMFGTSDRVYEKLKDLEEGIQALMQELEDGSPRIGQILKQTYDKFDANMRSDDALLKNYGLLSCFKKDLHKAETYLRVMKCRRFAESSCAF
notes: Used at 0.5 ug/mL as the ligand in ligand immunohistochemistry; Detected with goat anti-rat GH polyclonal antibody; also called growth hormone
With B1, in assay [2], the binding result was “binds”.

Values taken from US20210105999A1, “COMPOSITIONS FOR PROLONGING THE SURVIVAL AFTER ORTHOTOPIC AND HETEROTOPIC XENOGENEIC HEART, KIDNEY, LUNG OR LIVER TRANSPLANTATIONS” (priority 2018, published 2021).
